Laboratory results reported in patent publication US20050289668A1, “Plants with increased levels of one or more amino acids” (priority 2003, published 2005).

What was measured:
Format in all cases: biochemical
[1] = target: T1, E. coli threonine deaminase (ilvA) variant L481P, SEQ ID NO: 6 (Escherichia coli, UniProt P04968, A120R/A140R/G195C/G334V/L481P/V121L); assay: Threonine deaminase steady state kinetics, L481P
T1 construct: made in house; host or cells: E. coli (pSE380, crude extract)
Protocol: (§1) Before conducting further transformation experiments using the isolated ilvA alleles in transgenic plants, each allele was over-expressed in E. coli to determine its kinetic parameters. Kinetics data on threonine deaminases containing various mutations, and a comparison to data available for threonine deaminases from Arabidopsis, are provided in Table 4. The E. coli ilvA481 variants were subcloned into pSE380 (Invitrogen, Carlsbad, Calif.) and expression was induced with 0.2 mM IPTG at 37° C. for 3 hours. Expression of the E. coli alleles was high and fairly consistent as visualized by SDS-PAGE.
(§2) The effects of amino acid substitutions at Leu481 in ilvA were assessed by steady state kinetic analysis in the presence and absence of L-isoleucine. Threonine deaminase polypeptides for use in in vitro kinetics studies were extracted from E. coli cells in assay buffer containing 50 mM potassium phosphate (pH7.5), 1 mM dithiothreitol (DTT), and 0.5 mM ethylenediamine-tetraacetate. A continuous assay method was employed to monitor the formation of α-ketobutyrate directly at 230 nm (ε230 (pH7.5)=540 M^−1cm^−1 whereas threonine absorption was negligible (˜1%)). […] The kinetic parameters were determined by fitting the data points to the equations using GraFit 4.0 software (Erithacus Software, Surrey, UK). […]

[2] = target: T2, E. coli threonine deaminase (ilvA) variant L481Q, SEQ ID NO: 9 (Escherichia coli, UniProt P04968, A120R/A140R/G195C/G334V/L481Q/V121L); assay: Threonine deaminase steady state kinetics, L481Q
T2 construct: made in house; host or cells: E. coli (pSE380, crude extract)
T2 sequence (P04968 1-514 A120R/V121L/A140R/G195C/G334V/L481Q): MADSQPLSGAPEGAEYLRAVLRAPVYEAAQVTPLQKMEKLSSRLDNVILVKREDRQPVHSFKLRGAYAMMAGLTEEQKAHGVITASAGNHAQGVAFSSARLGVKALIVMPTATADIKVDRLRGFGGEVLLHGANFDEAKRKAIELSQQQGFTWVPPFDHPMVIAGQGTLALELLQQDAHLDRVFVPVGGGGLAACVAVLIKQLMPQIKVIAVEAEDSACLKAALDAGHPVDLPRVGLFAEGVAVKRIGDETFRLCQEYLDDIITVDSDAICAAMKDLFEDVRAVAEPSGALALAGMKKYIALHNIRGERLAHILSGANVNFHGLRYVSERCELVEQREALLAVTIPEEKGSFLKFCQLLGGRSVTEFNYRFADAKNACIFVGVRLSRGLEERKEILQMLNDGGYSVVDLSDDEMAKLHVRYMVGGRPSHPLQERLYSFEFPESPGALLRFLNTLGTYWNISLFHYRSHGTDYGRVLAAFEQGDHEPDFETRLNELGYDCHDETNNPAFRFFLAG
Protocol: as §1
The effects of amino acid substitutions at Leu481 in ilvA were assessed by steady state kinetic analysis in the presence and absence of L-isoleucine. Threonine deaminase polypeptides for use in in vitro kinetics studies were extracted from E. coli cells in assay buffer containing 50 mM potassium phosphate (pH7.5), 1 mM dithiothreitol (DTT), and 0.5 mM ethylenediamine-tetraacetate. A continuous assay method was employed to monitor the formation of α-ketobutyrate directly at 230 nm (ε230 (pH7.5)=540 M^−1cm^−1 whereas threonine absorption was negligible (˜1%)). The assay was initiated by adding 20 μl of crude extract diluted 1:20 v/v to the assay vessel containing L-threonine (between 2.5 mM and 50 mM) in a final volume of 1 mL. For L-isoleucine inhibition, L-isoleucine was added between 0 mM and 20 mM. The kinetic parameters were determined by fitting the data points to the equations using GraFit 4.0 software (Erithacus Software, Surrey, UK). For comparison, the kcat values of L481 alleles were normalized to the kcat value for the wild type IlvA enzyme. Enzymes represented in FIG. 7 are: wild type E. coli threonine deaminase (circles), L481Y TD enzyme (diamonds), L481F TD enzyme (triangles), and the L481T TD enzyme (squares). Table 4 also summarizes the kinetic parameters of the variant threonine deaminase enzymes produced by the various E. coli ilvA alleles.

[3] = target: T3, E. coli threonine deaminase (ilvA) variant L481F (ilvA466), SEQ ID NO: 4 (Escherichia coli, UniProt P04968, A120R/A140R/G195C/G334V/L481F/V121L); assay: biochemical
T3 construct: made in house; host or cells: E. coli (pSE380, crude extract)
Protocol: as §1, §2

[4] = target: T4, E. coli threonine deaminase (ilvA) variant L481E, SEQ ID NO: 7 (Escherichia coli, UniProt P04968, A120R/A140R/G195C/G334V/L481E/V121L); assay: Threonine deaminase steady state kinetics, L481E
T4 construct: made in house; host or cells: E. coli (pSE380, crude extract)
Protocol: as §1, §2

[5] = target: T5, E. coli threonine deaminase (ilvA), wild type, SEQ ID NO: 2 (Escherichia coli, UniProt P04968, A120R/A140R/G195C/G334V/V121L); assay: Threonine deaminase steady state kinetics, E. coli wild type
T5 construct: made in house; host or cells: E. coli (crude extract)
Protocol: as §1, §2

T3 sequence (P04968 whole entry A120R/V121L/A140R/G195C/G334V/L481F): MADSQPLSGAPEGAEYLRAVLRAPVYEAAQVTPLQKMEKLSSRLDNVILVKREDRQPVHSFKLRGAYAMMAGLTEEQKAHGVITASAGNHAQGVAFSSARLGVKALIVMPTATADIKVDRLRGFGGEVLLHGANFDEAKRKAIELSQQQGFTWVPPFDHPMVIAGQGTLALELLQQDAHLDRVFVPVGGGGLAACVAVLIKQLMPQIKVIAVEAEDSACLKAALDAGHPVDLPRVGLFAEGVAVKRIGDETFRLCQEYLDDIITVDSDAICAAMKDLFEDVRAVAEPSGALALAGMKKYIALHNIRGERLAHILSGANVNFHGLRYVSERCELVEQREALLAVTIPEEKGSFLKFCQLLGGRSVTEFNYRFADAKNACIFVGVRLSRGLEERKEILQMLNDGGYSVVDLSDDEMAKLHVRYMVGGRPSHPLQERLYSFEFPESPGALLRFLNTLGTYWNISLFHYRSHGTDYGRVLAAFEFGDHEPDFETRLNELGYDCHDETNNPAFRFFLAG
T1 sequence (P04968 whole entry A120R/V121L/A140R/G195C/G334V/L481P): as the sequence (P04968 whole entry A120R/V121L/A140R/G195C/G334V/L481F) above, with F481P counted along it
T5 sequence (P04968 whole entry A120R/V121L/A140R/G195C/G334V): as the sequence (P04968 whole entry A120R/V121L/A140R/G195C/G334V/L481F) above, with F481L counted along it
T4 sequence (P04968 whole entry A120R/V121L/A140R/G195C/G334V/L481E): as the sequence (P04968 whole entry A120R/V121L/A140R/G195C/G334V/L481F) above, with F481E counted along it

CC[C@H](C)[C@H](N)C(=O)O [L-isoleucine]
IC50 [1]: 650 µM
IC50 [2]: 188 µM
IC50 [3]: 800 µM
IC50 [4]: 445 µM
IC50 [5]: 56 µM

C[C@@H](O)[C@H](N)C(=O)O [L-threonine]
Km ([1]; read-out: Km^Thr, L481P, pMON25864, pH 7.5, L-threonine 2.5-50 mM): 8.8 mM
Hill coefficient (n), substrate binding ([2]; L481Q, pMON25865, positive cooperativity): 1.6
Km ([2]; read-out: Km^Thr, L481Q, pMON25865, pH 7.5, L-threonine 2.5-50 mM): 8.8 mM
Km ([3]; read-out: Km^Thr, L481F, pMON25857, pH 7.5, L-threonine 2.5-50 mM): 4 mM
Km ([4]; read-out: Km^Thr, L481E, pMON25860, pH 7.5, L-threonine 2.5-50 mM): 3.9 mM
Km ([5]; read-out: Km^Thr, E. coli wt, pMON25858, pH 7.5, L-threonine 2.5-50 mM): 8.3 mM
